# Measured values as given in patent US20070087364A1, “In vitro erythroid micronucleus assay for genotoxicity” (Massachusetts Institute of Technology, priority 2005, published 2007).
# Entries after “also recorded” stand apart in the source; their conditions may differ.
# Legend:
# [1] = test system: Lin^− bone marrow cells; test: erythropoietic growth of Lin− bone marrow quantified by flow cytometry (Ter-119/CD71) and total cell counts; type: cell-based, mouse; conditions: for effect on erythropoietic growth (erythropoietic flow cytometry), in words: preliminary flow cytometric studies, Lin− BM from C57BL/6J mice
# Method: FIG. 13 is a bar graph of data obtained from experiments performed to determined the effect of Epo on the erythropoietic growth of Lin− bone marrow cells. Lin^− bone marrow cells were cultured for 1 day in media containing serum along with Epo at variable concentrations. Epo was removed from the culture media at the end of 1 day, and culture was continued for 2 more days in media with serum. At the end of the third day, the resulting populations were removed from culture and erythropoietic growth was quantified as the product of total cell counts and flow cytometric region fractions. Specifically, erythroid-specific growth at two late stages was calculated for each culture by taking the product of the total cell count and the fraction of the population found to have the indicated surface phenotype (determined by flow cytometry). These erythroid growth values were then normalized to the number of Lin^− cells seeded.
# Studies were conducted by stimulating Lin^− mouse BM with specifically defined media formulations for 24 hours before replacing the medium to a minimal erythroid-differentiation medium (EDM) and culturing for an additional 2-3 days. This EDM contains 20% FBS, 2 mM L-glutamine, and 0.1 mM β-mercaptoethanol in IMDM, whereas the “Day 1” medium consists of IMDM with 15% FBS, 2 mM L-glutamine, 0.1 mM β-mercaptoethanol, 1% BSA, 200 μg holo-transferrin, 10 μg/mL insulin as well as further supplements (some specific media formulations listed in Table I). Upon harvest, the number of late-stage erythroid cells and enucleated erythrocytes produced over the culture period was analyzed. […] Although the most relevant endpoint for these cultures is PCEs-produced per primary BM cell, the number of R4 and R5 cells in the post-culture population, as measured by flow ctyometry, provided a reasonable metric of PCE content for early screening studies. More rigorous quantification, via histological analysis, was then employed in a more detailed analysis to generate FIGS. 11, 12, 14 and 16.
# As shown above, short-term erythropoietic culture can be used to detect genotoxic exposure. Quantitative studies on the erythropoietic growth of Lin^− BM after stimulus with physiologic erythropoietic factors were used to further improve the culture methodology and thus increase the potential throughput of the in vitro erythroid MN assay described here. Initially, flow cytometry was used to define late-erythroid cells by subdividing the Ter-119^+ population based on CD71 expression (regions shown in FIG. 4) to estimate the fraction of a culture that acquired late-erythroid surface markers. The products of flow cytometric region statistics and total cell counts were calculated and then normalized to input cell numbers to quantify erythropoietic growth in a culture.
# Table II. in vitro erythroid growth is modulated by physiologic erythropoietic stimuli. The culture conditions listed on the left-hand side of the table specify the environment in which a growth measurement was made. All soluble growth factors used in these experiments were removed from culture after 1 day. An X in this first section of the table indicates the variable parameter found to have a significant erythropoietic growth-effect. The measured effect of that parameter on erythropoietic growth is then given on the right-hand side of the table. In this right-hand section of the table, the first item listed is the defining surface phenotype of the erythropoietic population. […] Finally, the level of significance (P value) is given. Note that the first 4 entries to this table were taken from FIG. 13; other entries were obtained from similar figures. P values were determined by the two-tailed t test, except for the 3 italicized P values, which were determined using the one-tailed t test.
# [2] = test system: Lin^− bone marrow cells; test: PCE growth of Lin− bone marrow by acridine orange histology, fractional-factorial design with regression; type: cell-based, mouse; conditions: for effect on PCE production / erythropoietic growth, statistical analysis of FIG. 12: primary and secondary effects, untreated cultures
# Method: (FIG. 14A) Lin^− bone marrow cells were cultured for 1 day in media containing serum and various combinations of soluble growth factors as listed on the abscissa; these specific 6-factor combinations constitute an orthogonal fractional-factorial design (also represented in Table 1). After 1 day, all soluble erythropoietic growth factors were removed and the cells were cultured for either 2 or 3 additional days in medium with serum. At harvest, the cells were removed from culture and late erythropoietic growth was quantified. For each culture, PCE numbers were calculated by taking the product of the total cell count and the PCE fraction of the population as determined by differential cell counting after staining with acridine orange (>2000 cells scored per culture). Growth calculations were normalized to input cell numbers and are presented as the mean of 3 independent cultures +/− the standard deviation. (FIG. 14B) Culture methods that yielded similar populations at harvest were grouped into subsets (α, β, γ, and δ); growth characteristics for these subsets were quantified and representative micrographs were acquired. […] Cultures exposed to SCF but not Epo (subset γ) expanded approximately 2.5-fold in total cell numbers, but again contained less than 3% PCEs. Cultures exposed to both Epo and SCF (subset β) expanded approximately 13-fold in total cell numbers and yielded populations in which approximately 31% of all cells are PCEs. Finally, cultures exposed to both Epo and Dex but not SCF (subset δ) expanded approximately 4-fold while producing populations in which approximately 51% of all cells are PCEs. Growth calculations are presented as the mean of all cultures in a subset ± the standard deviation. Scale bars: 20 μm.
# Table I is an experimental design chart that provides the specific details of the experimental conditions that were examined to generate FIGS. 11, 12, 14 and 16. Specifically, this experimental design is a two-level, minimum-aberration, fractional-factorial design of resolution IV (a 2IV^6-2 minimum-aberration design). The full-factorial design was not performed because an experiment of this size (2^6 cultures for each biological singlet) was logisitically infeasible. This experiment was designed in order to estimate all the main (primary) interactions between the culture response (PCEs produced) and the individual parameters included in the design. In addition, many of the secondary interactions (between the culture response and various parameter-pairs) were estimable by conducting this design (see FIGS. 12 and 16), although some of these secondary interactions were confounded with other secondary interactions. Each condition listed in the design table was tested in biological triplicate, and each triplicate set was cultured under three different atmospheric conditions, to yield a total of nine culture wells per listed condition.
# Furthermore, some variability between various Lin^− BM isolations was observed over the course of preliminary flow cytometric studies. Therefore, a definitive study was conducted that used aliquots of a large, well-mixed Lin^− population that was isolated from the combined BM of 15 mice. In this study, flow cytometry was replaced by histological analysis to provide more rigorous quantification of a population's PCE content. This study was designed to estimate the relative stimulatory effect of various, previously-identified erythroid growth factors on culture performance. Specifically a minimum-aberration, fractional-factorial experimental design (a 2IV^6-2 minimum-aberration design) was conducted to estimate all the main (primary) interactions between the culture response, which was PCEs produced (as assessed by histology), and the individual parameters included in the design (see Table I, and FIGS. 11, 12, 14 and 16). […]
# [3] = complete multi-linear regression model (n3=27), parameters scaled 0 to 1
# [4] = reduced multi-linear regression model (n3=17), FIG. 16
compound,measurement,setting,value
"C[C@@H]1C[C@H]2[C@@H]3CCC4=CC(=O)C=C[C@]4(C)[C@@]3(F)[C@@H](O)C[C@]2(C)[C@@]1(O)C(=O)CO [Dex, Dexamethasone, reference compound]",Avg Growth +/− SD,"[1]; [Dex] = 1 μM, Ter-119+ CD71+, Epo 5 U/mL, SCF 0, 72 h, CO2 0.5%, 20% O2, Fn 2, Ins 10, IGF-I 10 ng/mL",0.278 +/− 0.102 per Lin^− cell seeded
same,Avg Growth +/− SD,"[1]; [Dex] = 1 μM, Ter-119+ CD71−, Epo 5 U/mL, SCF 0, 72 h, CO2 0.5%, 20% O2, Fn 2, Ins 10, IGF-I 0",0.016 +/− 0.006 per Lin^− cell seeded
same,Avg Growth +/− SD,"[1]; [Dex] = 10 μM, Ter-119+ CD71−, Epo 5 U/mL, SCF 0, 72 h, CO2 0.5%, 20% O2, Fn 2, Ins 10, IGF-I 0",0.028 +/− 0.016 per Lin^− cell seeded
same,"Scaled Estimate (model parameter, PCE growth)",[2]; [3],−0.298
same,"Scaled Estimate (model parameter, PCE growth)",[2]; [4],−0.333
"Epo: erythropoietin (Amgen), essential component of the erythropoietic media formulation",Avg Growth +/− SD,"[1]; [Epo] = 2 U/mL (low-growth comparison), Ter-119+ CD71−, SCF 0, 72 h, 5% CO2, 20% O2, Fn 2, Dex 0, Ins 10, IGF-I 0",0.141 +/− 0.019 per Lin^− cell seeded
same,Avg Growth +/− SD,"[1]; [Epo] = 5 U/mL, Ter-119+ CD71−, SCF 0, 72 h, 5% CO2, 20% O2, Fn 2 μg/sq cm, Dex 0, Ins 10 μg/mL, IGF-I 0",0.307 +/− 0.022 per Lin^− cell seeded
same,Avg Growth +/− SD,"[1]; [Epo] = 10 U/mL, Ter-119+ CD71−, SCF 0, 72 h, 5% CO2, 20% O2, Fn 2, Dex 0, Ins 10, IGF-I 0",0.380 +/− 0.050 per Lin^− cell seeded
same,Avg Growth +/− SD,"[1]; [Epo] = 50 U/mL, Ter-119+ CD71−, SCF 0, 72 h, 5% CO2, 20% O2, Fn 2, Dex 0, Ins 10, IGF-I 0",0.312 +/− 0.030 per Lin^− cell seeded
same,Avg Growth +/− SD,"[1]; [Epo] = 500 U/mL, Ter-119+ CD71−, SCF 0, 72 h, 5% CO2, 20% O2, Fn 2, Dex 0, Ins 10, IGF-I 0",0.314 +/− 0.019 per Lin^− cell seeded
same,level at which the erythropoietic stimulatory effect reached a maximum,"[1]; cultured Lin− BM, Epo present for first day",approximately 10 U/mL
same,"relative size of growth effects by multi-linear regression, in words",[2]; FIG. 16,largest eyrthropoietic growth effect
same,"Scaled Estimate (model parameter, PCE growth)",[2]; [3],3.136
same,"effect on PCE production / erythropoietic growth, statistical analysis of FIG. 12",[2],"major factors influencing erythropoietic growth; also recorded: the largest, and most statistically-significant, effect"
same,"Scaled Estimate (model parameter, PCE growth)",[2]; [4],3.130
IGF-I: Insulin-like Growth Factor I (R&D systems),"effect on erythropoietic growth (erythropoietic flow cytometry), in words",[1],had an effect on erythroid cell numbers
same,"Scaled Estimate (model parameter, PCE growth)",[2]; [3],−0.231
same,"Scaled Estimate (model parameter, PCE growth)",[2]; [4],−0.200
Ins: recombinant human insulin (Sigma),Avg Growth +/− SD,"[1]; [Ins] = 10 μg/mL, Ter-119+ CD71+, Epo 5 U/mL, SCF 0, 72 h, 5% CO2, 20% O2, Fn 0",1.743 +/− 0.107 per Lin^− cell seeded
same,Avg Growth +/− SD,"[1]; [Ins] = 10 μg/mL, Ter-119+ CD71−, Epo 5 U/mL, SCF 0, 72 h, 5% CO2, 20% O2, Fn 0",0.382 +/− 0.008 per Lin^− cell seeded
same,Avg Growth +/− SD,"[1]; [Ins] = 100 μg/mL, Ter-119+ CD71+, Epo 5 U/mL, SCF 0, 72 h, 5% CO2, 20% O2, Fn 0",2.096 +/− 0.121 per Lin^− cell seeded
same,Avg Growth +/− SD,"[1]; [Ins] = 100 μg/mL, Ter-119+ CD71−, Epo 5 U/mL, SCF 0, 72 h, 5% CO2, 20% O2, Fn 0",0.427 +/− 0.015 per Lin^− cell seeded
"SCF: stem cell factor (R&D systems), soluble erythropoietic growth factor",Avg Growth +/− SD,"[1]; [SCF] = 1 ng/mL, Ter-119+ CD71+, Epo 5 U/mL, 72 h, 5% CO2, 20% O2, Fn 2, Ins 10",0.897 +/− 0.053 per Lin^− cell seeded
same,Avg Growth +/− SD,"[1]; [SCF] = 1 ng/mL, Ter-119+ CD71−, Epo 5 U/mL, 72 h, 5% CO2, 20% O2, Fn 2, Ins 10",0.275 +/− 0.026 per Lin^− cell seeded
same,Avg Growth +/− SD,"[1]; [SCF] = 1 ng/mL, Ter-119+ CD71−, Epo 5 U/mL, 96 h, 5% CO2, 20% O2, Fn 2, Ins 10",0.372 +/− 0.052 per Lin^− cell seeded
same,Avg Growth +/− SD,"[1]; [SCF] = 10 ng/mL, Ter-119+ CD71+, Epo 3.5 U/mL, 72 h, 5% CO2, 20% O2, Fn 2, Ins 10",1.512 +/− 0.100 per Lin^− cell seeded
same,Avg Growth +/− SD,"[1]; [SCF] = 10 ng/mL, Ter-119+ CD71+, Epo 5 U/mL, 72 h, 5% CO2, 20% O2, Fn 2, Ins 10",1.448 +/− 0.155 per Lin^− cell seeded
same,Avg Growth +/− SD,"[1]; [SCF] = 10 ng/mL, Ter-119+ CD71−, Epo 3.5 U/mL, 72 h, 5% CO2, 20% O2, Fn 2, Ins 10",0.202 +/− 0.023 per Lin^− cell seeded
same,Avg Growth +/− SD,"[1]; [SCF] = 10 ng/mL, Ter-119+ CD71−, Epo 5 U/mL, 96 h, 5% CO2, 20% O2, Fn 2, Ins 10",0.608 +/− 0.081 per Lin^− cell seeded
same,Avg Growth +/− SD,"[1]; [SCF] = 100 ng/mL, Ter-119+ CD71+, Epo 5 U/mL, 72 h, 5% CO2, 20% O2, Fn 2, Ins 10",1.929 +/− 0.154 per Lin^− cell seeded
same,Avg Growth +/− SD,"[1]; [SCF] = 100 ng/mL, Ter-119+ CD71−, Epo 5 U/mL, 72 h, 5% CO2, 20% O2, Fn 2, Ins 10",0.369 +/− 0.041 per Lin^− cell seeded
same,"effect on erythropoietic growth (erythropoietic flow cytometry), in words",[1],did induce increasing erythropoietic growth up to the maximum concentration tested
same,"Scaled Estimate (model parameter, PCE growth)",[2]; [3],0.166
same,PCEs among all cells of the harvested population,"[2]; growth factors present for 1 day, then 2 or 3 additional days, acridine orange differential counts (FIG. 14B)",less than 3%
same,expansion in total cell numbers,"[2]; growth factors present for 1 day, then 2 or 3 additional days, mean of all cultures in a subset (FIG. 14B)",approximately 2.5 fold
same,"effect on PCE production / erythropoietic growth, statistical analysis of FIG. 12",[2],major factors influencing erythropoietic growth; also recorded: next largest effects
same,"Scaled Estimate (model parameter, PCE growth)",[2]; [4],0.138
